Experiment [1] deals with hepatocytes. Particulars: retroviral vector given after growth factor administration; literature reports (Bosch 1996, Kosai 1998, Forbes 1998); cited from earlier work.
For experiment [2], the system named is hepatocytes. Nature of the experiment: Hepatocyte proliferation in vivo by BrdU labeling after growth factor injection. Also noted: species or system rat. The conditions noted are these: for zones of the liver showing cell proliferation / time after injection having maximum liver cell proliferation: KGF 1 mg/kg or T3 4 mg/kg s.c.; for proportion of hepatocytes proliferating (BrdU labelled, S-phase) at 24 hours: T3 4 mg/kg and/or KGF 1 mg/kg s.c. at 0 hours, BrdU 1 hour before sacrifice; for dose producing maximal hepatocyte proliferation at 24 hours: dose response curves, subcutaneous injection, single factor; for time after injection having maximum liver cell proliferation: time course 6-30 hours. As for the experimental part:
Male Wistar rats weighing 200-250 grams were used. They were housed in a temperature and light controlled room (12 hour light/dark cycle) and were allowed water and food ad libitum.
T3 (Sigma, St. Louis, Mo. USA), 4 mg per kilogram of body weight was dissolved in 100 μl of 0.01 M NaOH in […] NaCl and administered by subcutaneous injection in the flank region of the animal.
Lyophilized KGF (full lenght recombinant KGF, AMGEN, Thousand Oaks, Calif.) 1 mg per kilogram of body weight was dissolved in 100 μl of a suitable buffer (0.01% by weight polyoxyethylenesorbitan monolaurate (TWEEN 20, Sigma) solution) and administered by subcutaneous injection in the flank region of the animal.
Measurement of liver cell proliferation was performed by BrdU labeling. BrdU (Sigma) (50 mg/kg dissolved in 800 μl of 0.9% NaCl) was injected intraperitoneally 1 hour prior to sacrifice. Livers of the animals were removed and fixed in 60% methanol, 30% chloroform and 10% glacial acetic acid before routine histological processing and embedding in wax blocks. The incorporation of BrdU into hepatic nuclei was detected in 4 μm thick sections using a mouse monoclonal antibody (Dako, Glostrup, Denmark), followed by a biotinilated rabbit anti-mouse secondary antibody (Dako). Visualization was achieved by the indirect peroxidase technique using diaminobenzidine tetrahydrochloride dihydrate (Aldrich Chemical, Milwaukee, Wis. USA) as a substrate. The labeling index and percentage of hepatic mitoses was determined by counting 2000 hepatocytes per section from consecutive light microscopy fields. See Forbes, et al., Gene Therapy 5:552-555 at 553 (1998)(incorporated herein by reference in its entirety).
Dose response curves were initially performed to identify the dose at which KGF and T3 independently cause maximum hepatocyte proliferation at 24 hours.
The times after injection having maximum liver cell proliferation (as measured by DNA synthesis), were also independently established for each of the individual factors. An injection corresponding to the dose producing maximal cell proliferation, as established in Example 1, was independently administered to 2 groups of subjects, one group for each factor. Dividing cells were labelled by administering BrdU 1 hour prior to sacrifice. At 6, 9, 12, 15, 18, 24, and 30 hours after injection three animals of each group were sacrificed and labelled liver cells counted.
While searching for a manner of producing a clinically acceptable level of liver cell proliferation without a need for prior injury to the liver, a series of experiments were performed whereby a combination of factors was administered to subjects and liver cell proliferation measured 24 hours after administration. […] factor combinations were independently tested, each combination in a different group of animals. A first group received 4 mg/kg T3 at 0 hours. A second group received 1 mg/kg KGF at 0 hours. A third group received 1 mg/kg KGF and 4 mg/kg T3 at 0 hours. A fourth group served as control and received the vehicle or diluent only.
In general terms: Dividing cells build labelled thymidine or BrdU into new DNA.

In experiment [3] the test system is hepatocytes. Format: in vivo, rat. The conditions noted are these: for proportion of hepatocytes transfected/transduced (β-galactosidase): growth factor at hour 0, 1 ml retrovirus intraportally at 24 hours, killed 9 days after vector; for zones of the liver where transfected hepatocytes were found: intraportal vector at 24 hours, 9 days after vector.
Description: Animals were anesthetized with isoflurane. A midline laparotomy was performed, the bowel was deflected to the left and wrapped in normal saline-soaked gauze. The portal vein and hepatic artery were clamped using micro-aneurysm clips, the portal vein was cannulated with a 26-gauge needle proximal to the clip and 1 ml of retroviral supernatant was injected over 5 minutes. Hemostasis was achieved by direct pressure to the portal vein and topical thrombin (Sigma) application. The clips were removed and the abdomen sutured, and the animals were allowed to recover in a warm, quite environment. […] For peripheral vein injection, 1 ml of the retrovirus/DOGS complex was injected via tail vein as a bolus.
Transduction of liver cells was measured by β-galactosidase activity. Animals were anesthetized and sacrificed by exsanguination. The liver was removed and frozen in liquid nitrogen. Ten-micron frozen sections were cut on to glass slides, fixed in a solution of 1.25% glutaraldehyde at 4° C., washed with phosphate buffered saline (PBS) then covered in X-gal (Gibco BRL, Grand Island, N.Y.) solution (1 mg/ml, pH 7.4) and incubated overnight at 37° C. Sections were then washed in PBS, counterstained lightly with eosin or carmalum stain, dehydrated and mounted in pertex (Cellpath, Hemel Hempstead, UK). The proportion of hepatocytes expressing nuclear β-galactosidase was calculated by counting 2000 hepatocytes per section from three separate areas.
At hour 0, several groups of four rats received an administration of either a single growth factor (either 4 mg/kg T3 or 1 mg/kg KGF) or the combination of 4 mg/kg T3/1 mg/kg KGF. A control group of three rats received injections of the growth factor diluents only. At 24 hours all rats were injected intraportally with 1 ml of retrovirus during temporary hepatic artery and portal vein occlusion. All rats were killed 9 days following vector administration.

With “hepatocyte growth factor: hepatocyte growth factor, cited from Kosai et al.”, the “liver cells (hepatocytes) transduced in vivo” value (from here on “liver cells”) in the experiment with hepatocytes [1] was 1.3%.
Take `N[C@@H](Cc1cc(I)c(Oc2ccc(O)c(I)c2)c(I)c1)C(=O)O` [T3, tri-iodothyronine, reference compound]: the “liver cells” value with hepatocytes [1] is reported as “about 1.3%”. In the experiment on hepatocytes [2], the “zones of the liver showing cell proliferation” value was “predominantly in the mid-zonal region”; the “proportion of hepatocytes proliferating (BrdU labelled, S-phase) at 24 hours” value is on record as “approximately 10%”; the “dose producing maximal hepatocyte proliferation at 24 hours” value came out at 4 mg/kg; the “time after injection having maximum liver cell proliferation” value is 24 h. In the experiment with hepatocytes [3], the “proportion of hepatocytes transfected/transduced (β-galactosidase)” value is given as “approximately 1.2%” and the “zones of the liver where transfected hepatocytes were found” value was “mostly found in the mid-zonal region”.

B1: KGF: full length recombinant keratinocyte growth factor polypeptide (AMGEN) (protein, UniProt P21781 1-194, looked up)
chain: MHKWILTWILPTLLYRSCFHIICLVGTISLACNDMTPEQMATNVNCSSPERHTRSYDYMEGGDIRVRRLFCRTQWYLRIDKRGKVKGTQEMKNNYNIMEIRTVAVGIVAIKGVESEFYLAMNKEGKLYAKKECNEDCNFKELILENHYNTYASAKWTHNGGEMFVALNQKGIPVRGKKTKKEQKTAHFLPMAIT
modifications: full-length
Take B1: the “liver cells” value with hepatocytes [1] is reported as 2%. In the experiment on hepatocytes [2], the “zones of the liver showing cell proliferation” value is “all zones of the liver”; the “proportion of hepatocytes proliferating (BrdU labelled, S-phase) at 24 hours” value was “approximately 9%”; the “dose producing maximal hepatocyte proliferation at 24 hours” value was found to be 1 mg/kg; the “time after injection having maximum liver cell proliferation” value worked out at 24 h. Besides, in the experiment with hepatocytes [3], the “proportion of hepatocytes transfected/transduced (β-galactosidase)” value is “approximately 1%” and the “zones of the liver where transfected hepatocytes were found” value is “found in all zones of the liver”.

Values taken from patent US6790838B2, “Combinations and methods for promoting in vivo liver cell proliferation and enhancing in vivo liver-directed gene transduction” (Amgen, Inc., priority 1999, dated 2004).
